Measurements from article PMC2074469.

Key:
[1] = biological target: T1, aromatase (Homo sapiens, UniProt P11511); experiment: Serum oestradiol suppression in healthy post-menopausal female volunteers (trials 1 and 2); format: in vivo; conditions: for women with serum oestradiol below the limit of detection of the assay: limit of detection 3 pmol l-1; for mean BS oestradiol concentration 24 h after dosing on days 13 and 14, adjusted geometric mean / BS oestradiol AUC days 1-14, adjusted geometric mean: baseline-scaled; for BS oestradiol AUC days 1-14, adjusted geometric mean: normalised by time; for mean post-dose scaled oestradiol suppression compared with baseline: mean of 24 h after doses on days 13 and 14
T1 construct: from tissue; host or cells: peripheral tissues of healthy post-menopausal female volunteers (in vivo; serum oestrogens measured)
T1 sequence (P11511 1-503): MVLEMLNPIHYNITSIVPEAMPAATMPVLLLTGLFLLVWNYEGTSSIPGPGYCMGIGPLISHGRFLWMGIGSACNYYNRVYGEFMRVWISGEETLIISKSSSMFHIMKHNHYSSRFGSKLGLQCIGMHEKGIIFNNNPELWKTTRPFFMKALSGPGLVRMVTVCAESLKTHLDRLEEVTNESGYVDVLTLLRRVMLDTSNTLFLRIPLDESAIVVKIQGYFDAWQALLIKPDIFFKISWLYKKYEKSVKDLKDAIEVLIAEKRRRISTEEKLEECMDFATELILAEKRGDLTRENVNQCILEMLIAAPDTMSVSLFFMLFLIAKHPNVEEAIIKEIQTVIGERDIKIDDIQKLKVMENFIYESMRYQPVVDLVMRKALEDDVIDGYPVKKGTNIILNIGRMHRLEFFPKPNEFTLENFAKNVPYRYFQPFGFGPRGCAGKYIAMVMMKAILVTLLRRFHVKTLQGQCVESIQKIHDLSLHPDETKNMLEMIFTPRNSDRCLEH
Protocol: (§1) Summary Two multiple-dose studies were conducted in healthy post-menopausal female volunteers to investigate the pharmacokinetics and effects on endocrinology of Arimidex (ZD1033). Volunteers in the first trial were dosed with 3 mg of ZD1033 daily over 10 days to assess the effects on endocrinology of ZD1033 and establish the pharmacokinetic profile. In the second trial volunteers received 14 daily doses of either 0.5 or 1.0 mg of ZD1033 to assess the pharmacokinetics of ZD1033 and the effects of low doses of ZD1033 on serum oestradiol concentrations. […] Keywords: Arimidex; aromatase inhibitor; oestrogen Breast cancer is the most common type of cancer in women, accounting for 10% of all female cancers. […] ZD1033 is an achiral benzyltriazole derivative, 2,2[5-(1 H- 12,4-triazol- I -ylmethyl)- 1,3-phenylene] bis (2- methyl-propriononitrile) (Figure 1). […] ZD1033 is currently being evaluated in identical phase III efficacy and tolerability studies vs megestrol acetate in post- menopausal women with advanced breast cancer in the USA and Europe. This paper describes two studies that investigated the pharmacokinetic profile, selectivity, tolerability and efficacy in oestradiol suppression of multiple doses of ZD1033. The objective of the studies was to determine the minimum dose required for maximal suppression of circulating oestradiol, while retaining selectivity for the aromatase enzyme. […] Methods The two trials were randomised, double-blind, placebo- controlled multiple-dose studies in healthy post-menopausal female volunteers aged between 45 and 62 years (inclusive). Both trials had the same entry criteria and were of similar design. In the first study (trial 1), a total of eight volunteers were given eight doses of 3 mg of ZD1033 over 10 days to assess tolerability, pharmacokinetics and effects on endocrinology. In the second study (trial 2) a total of 14 volunteers were given 0.5 and 1 mg doses of ZD1033 daily for 14 days to assess the tolerability, pharmacokinetics and effect on serum oestradiol concentrations only. […] The key inclusion criteria were: at least one intact ovary; cervical smear negative for malignancy within the previous 12 months; normal clinical laboratory parameters and; normal clinical examination. Key exclusion criteria were a history of malignant breast disease or previous hysterectomy as a result of malignancy. […] A dose of 3 mg ZD1033 or matching placebo was then given on the following 7 consecutive days (study days 4-10). […] Samples for assay of serum aldosterone, cortisol, 17- hydroxyprogesterone (17-HP), dehydroepiandrosterone sul- phate (DHEA-S), luteinising hormone (LH), FSH and adrenocorticotrophic hormone (ACTH) were collected before and 3 h after dosing on study days 1 and 10 of both treatment periods. Additional samples for cortisol assay were also collected before dosing on study days 3, 5, 7 and 9 in both treatment periods. An ACTH stimulation test was performed 3 h after the dose on study day 10.

[2] = biological target: T1, aromatase; experiment: Serum oestrone suppression, trial 1 (3 mg of ZD1033 vs placebo); format: in vivo
Protocol: as §1

[3] = system: adrenal steroidogenesis; experiment: Serum adrenal steroid concentrations, trial 1 (cortisol, aldosterone, 17-HP, androstenedione, DHEA-S); format: in vivo, human
Protocol: as §1

[4] = system: gonadotrophin release; experiment: Serum pituitary hormones, trial 1 (ACTH, LH, FSH); format: in vivo, human; conditions: for scaled FSH: percentage change of scaled geometric mean relative to placebo / scaled LH: percentage change of scaled geometric mean relative to placebo: 3 mg
Protocol: as §1

[5] = system: steroid response to ACTH challenge; experiment: ACTH stimulation test (synacthen), trial 1 study day 10; format: in vivo, human; conditions: 3 mg, 30 and 60 min after ACTH
Protocol: (§2) Summary Two multiple-dose studies were conducted in healthy post-menopausal female volunteers to investigate the pharmacokinetics and effects on endocrinology of Arimidex (ZD1033). Volunteers in the first trial were dosed with 3 mg of ZD1033 daily over 10 days to assess the effects on endocrinology of ZD1033 and establish the pharmacokinetic profile. In the second trial volunteers received 14 daily doses of either 0.5 or 1.0 mg of ZD1033 to assess the pharmacokinetics of ZD1033 and the effects of low doses of ZD1033 on serum oestradiol concentrations. […] Keywords: Arimidex; aromatase inhibitor; oestrogen Breast cancer is the most common type of cancer in women, accounting for 10% of all female cancers. […] ZD1033 is an achiral benzyltriazole derivative, 2,2[5-(1 H- 12,4-triazol- I -ylmethyl)- 1,3-phenylene] bis (2- methyl-propriononitrile) (Figure 1). […] ZD1033 is currently being evaluated in identical phase III efficacy and tolerability studies vs megestrol acetate in post- menopausal women with advanced breast cancer in the USA and Europe. This paper describes two studies that investigated the pharmacokinetic profile, selectivity, tolerability and efficacy in oestradiol suppression of multiple doses of ZD1033. The objective of the studies was to determine the minimum dose required for maximal suppression of circulating oestradiol, while retaining selectivity for the aromatase enzyme. […]

[6] = human, in vivo
Protocol: as §2

[7] = clinical; conditions: female, human, plasma, oral; for half-life: mean half-life
[8] = system: adrenal gland steroidogenesis; conditions: cited from earlier work
[9] = cited from earlier work
[10] = biological target: T1, aromatase; conditions: cited from earlier work
[11] = 3 mg vs placebo, not statistically significant

CC(C)(C#N)c1cc(Cn2cncn2)cc(C(C)(C)C#N)c1 [ZD1033, 2,2[5-(1 H-12,4-triazol-I -ylmethyl)-1,3-phenylene] bis (2-methyl-propriononitrile)]
reduction in serum oestradiol levels (to the limit of detection of the available assay) ([1]; 1 mg daily p.o.): > 80% | reduction in concentration of serum oestradiol of baseline following multiple dosing ([1]; all three doses (0.5, 1.0, 3 mg daily)): approximately 80% | minimal dose required for maximal suppression of oestradiol ([1]; from number of volunteers below assay limit of detection 24 h after last dose): 1.0 mg | decrease of oestradiol concentration compared with placebo values ([1]; trial 1, 3 mg daily days 4-10, by day 8, P = 0.004): approximately 80% | oestradiol suppression compared with placebo values ([1]; trial 1, 3 mg, 24 h after the last dose): 70% | reduction of mean serum oestradiol concentration compared with placebo ([1]; trial 1, 3 mg, by 48 h after the first dose, P = 0.001): approximately 70% | recovery of serum oestradiol after first dose ([1]; trial 1, single 3 mg dose, up to 72 h): no recovery apparent by 72 h | reduction of mean scaled oestradiol AUC 24 h after dosing on days 1-14 ([1]; trial 2, 0.5 mg daily): 82% | women with serum oestradiol below the limit of detection of the assay ([1]; trial 2, 0.5 mg daily, 24 h after the last dose): one out of six | mean post last dose oestradiol concentration ([1]; trial 2, 0.5 mg daily, baseline mean 46 pmol l-1): 5.9 pmol/L | mean BS oestradiol concentration 24 h after dosing on days 13 and 14, adjusted geometric mean ([1]; trial 2, 0.5 mg daily): 0.156 | BS oestradiol AUC days 1-14, adjusted geometric mean ([1]; trial 2, 0.5 mg daily): 0.175 | mean post-dose scaled oestradiol suppression compared with baseline ([1]; trial 2, 0.5 mg daily): 84% | reduction of mean scaled oestradiol AUC 24 h after dosing on days 1-14 ([1]; trial 2, 1.0 mg daily): 84% | women with serum oestradiol below the limit of detection of the assay ([1]; trial 2, 1 mg daily, 24 h after the last dose): five out of seven | mean post last dose oestradiol concentration ([1]; trial 2, 1.0 mg daily, baseline mean 28 pmol l-1): 3.2 pmol/L | mean BS oestradiol concentration 24 h after dosing on days 13 and 14, adjusted geometric mean ([1]; trial 2, 1.0 mg daily): 0.138 | BS oestradiol AUC days 1-14, adjusted geometric mean ([1]; trial 2, 1.0 mg daily): 0.160 | mean post-dose scaled oestradiol suppression compared with baseline ([1]; trial 2, 1.0 mg daily): 86% | duration of suppression of mean oestradiol concentrations ([1]; trial 2, 0.5 and 1 mg daily for 14 days): remained suppressed from 3 h after the first dose to 6 days after the last dose | treatment effect (ratio 0.5 - 1.0 mg), BS oestradiol AUC days 1-14 ([1]; trial 2, 95% confidence (0.52, 2.30), P 0.794): 1.09 | treatment effect (ratio 0.5 - 1.0 mg), mean BS oestradiol days 13 and 14 ([1]; trial 2, 95% confidence (0.55, 2.33), P 0.713): 1.13 | recovery in oestradiol after the last dose ([1]; up to 144 h after the last dose): no recovery | scaled oestrone: percentage reduction in geometric mean relative to placebo ([2]; 96 h after dose on day 10): 39.7% | scaled oestrone: percentage reduction in geometric mean relative to placebo ([2]; Day 2): 36.2% | scaled oestrone: percentage reduction in geometric mean relative to placebo ([2]; Day 3): 29.4% | scaled oestrone: percentage reduction in geometric mean relative to placebo ([2]; Day 4): 34.6% | scaled oestrone: percentage reduction in geometric mean relative to placebo ([2]; Day 6): 41.1% | scaled oestrone: percentage reduction in geometric mean relative to placebo ([2]; Day 8): 34.8% | scaled oestrone: percentage reduction in geometric mean relative to placebo ([2]; Day 10): 44.9% | maximal suppression of mean serum oestrone compared with placebo values ([2]; from study day 6 onwards): approximately 40% | recovery of serum oestrone after the last dose ([2]; up to 96 h after the last dose): no recovery apparent by 96 h after the last dose | alteration in mean serum concentration of DHEA-S relative to placebo ([3]; 3 mg): No clinically significant alterations | change in mean serum concentration of cortisol ([3]; 3 mg vs placebo): No statistically significant changes | change in mean serum concentration of 17-HP [3, 11]: no consistent changes | change in mean serum concentration of aldosterone [3, 11]: no consistent changes | change in mean serum concentration of androstenedione [3, 11]: no consistent changes | scaled 17-HP: percentage change of scaled geometric mean relative to placebo ([3]; 3 mg, Day 1, 3 h after dose): -26.9% | scaled aldosterone: percentage change of scaled geometric mean relative to placebo ([3]; 3 mg, Day 1, 3 h after dose): -12.9% | scaled 17-HP: percentage change of scaled geometric mean relative to placebo ([3]; 3 mg, Day 10, 3 h after dose): 48.9% | scaled aldosterone: percentage change of scaled geometric mean relative to placebo ([3]; 3 mg, Day 10, 3 h after dose): 21.0% | scaled 17-HP: percentage change of scaled geometric mean relative to placebo ([3]; 3 mg, Day 10, pre-dose): 3.8% | scaled aldosterone: percentage change of scaled geometric mean relative to placebo ([3]; 3 mg, Day 10, pre-dose): 24.6% | effect on ACTH, LH or FSH ([4]; 3 mg vs placebo): None of the data suggested an effect | scaled FSH: percentage change of scaled geometric mean relative to placebo ([4]; Day 1, 3 h after dose): 0.01% | scaled LH: percentage change of scaled geometric mean relative to placebo ([4]; Day 1, 3 h after dose): -9.5% | scaled FSH: percentage change of scaled geometric mean relative to placebo ([4]; Day 10, 3 h after dose): -3.4% | scaled LH: percentage change of scaled geometric mean relative to placebo ([4]; Day 10, 3 h after dose): 12.2% | scaled FSH: percentage change of scaled geometric mean relative to placebo ([4]; Day 10, pre-dose): 1.54% | scaled LH: percentage change of scaled geometric mean relative to placebo ([4]; Day 10, pre-dose): -9.3% | difference of 17-HP after ACTH stimulation from values obtained on placebo [5]: up to 12% | difference of cortisol after ACTH stimulation from values obtained on placebo [5]: up to 12% | changes in blood pressure, pulse rate or ECG [6]: no evidence of changes | Cmax ([7]; 0.5 mg): 5.97 ng/mL | Tmax ([7]; 0.5 mg): 2 h | half-life ([7]; 0.5 mg): 45.7 h | Cmax ([7]; 1 mg): 13.7 ng/mL | Tmax ([7]; 1 mg): 2 h | half-life ([7]; 1 mg): 40.6 h | Tmax ([7]; 3 mg): 3 h | half-life ([7]; 3 mg, after the first dose of 3 mg): 50.7 h | half-life ([7]; 3 mg, after the last dose of 3 mg): 45.4 h

CCC1(c2ccc(N)cc2)CCC(=O)NC1=O (centres unmarked) [aminoglutethimide]
selectivity for the aromatase enzyme ([8]; 250 mg q.i.d., also inhibits adrenal gland steroidogenesis, ref Lonning and Johannessen, 1991): non-selective | toxicity ([9]; ref Lonning and Johannessen, 1991): marked toxicity

C[C@]12CCC(=O)C(O)=C1CC[C@@H]1[C@@H]2CC[C@]2(C)C(=O)CC[C@@H]12 [formestane]
oestradiol suppression ([10]; in vivo): 49- 64% | adverse reactions ([9]; 250 mg i.m. once every 2 weeks, ref Hoffken et al., 1993): injection site reactions

N#Cc1ccc(C(c2ccc(C#N)cc2)n2cncn2)cc1 [letrozole]
reduction in oestradiol levels ([10]; ref Iveson et al., 1993): up to 86% | selectivity: interference with adrenal steroidogenesis ([8]; in vivo): no reports of letrozole interfering
